Reference: patent US20160206633A1, “dhS1P AND USE OF SAME AS AN ANTICANCER THERAPEUTIC AND IMMUNOMODULATOR” (Penn State Research Foundation, Inc., priority 2013, published 2016)

Columns and labels:
[1] = system: human MDA-MB-231 breast cancer cells; assay: PhotoImmunoNanoTherapy, subcutaneous MDA-MB-231 breast tumor growth in athymic nude mice; assay type: in vivo; conditions: subcutaneous MDA-MB-231 in athymic nude mice; one injection, NIR laser 24 h later
From the text: To evaluate the antitumor efficacy of PhotoImmunoNanoTherapy, two murine models of breast cancer were utilized to study effects in T-cell-competent hosts (murine 410.4 cells in BALB/cJ mice) and T-cell-deficient hosts (human MDA-MB-231 cells in athymic nude mice; murine 410.4 cells in NOD.CB17-Prkdcscid/J mice), in addition to a subcutaneously engrafted model of pancreatic cancer (murine Panc-02 cells in C57BL/6J mice), an orthotopic pancreatic cancer model (human BxPC-3 cells in athymic nude mice), and an experimental model of lung-metastatic osteosarcoma (human SAOS-2-LM7 cells in athymic nude mice). Treatments were initiated one week following tumor establishment and consisted of injections of ICG-CPSNPs or controls followed 24 h later by NIR laser treatment of the tumor location to allow adequate tumor accumulation of PEGylated ICGCPSNPs. […] In the most elaborate study, MDA-MB-231 tumor growth was abrogated in athymic nude mice receiving PEGylated ICG-CPSNPs but not PBS or PEGylated ghost CPSNPs (FIG. 1A). Furthermore, MDA-MB-231 tumor growth was not blocked by non-PEGylated (citrate-terminated) ICG-CPSNPs or free ICG.
Orthotopic pancreatic cancer and subcutaneous breast cancer tumors were established in athymic nude, NOD.CB17-Prkdcscid/J, BALB/cJ, or C57BL/6J mice as previously described (8, 9), with minor modifications. […] Tumor size was measured by caliper measurement. […]

[2] = system: isolated IMCs (GEMM colonies, multipotent myeloid progenitor cells); assay: CFU-GEMM colony forming assay of isolated IMCs; assay type: cell-based, athymic nude mice; conditions: 5 μM, GEMM-supportive semi-solid media, 3 weeks of culture
Procedure: (A) Splenic IMCs (Gr-1+CD11b+, also defined as MDSCs: myeloid-derived suppressor cells) were isolated from MDA-MB-231 tumor-bearing athymic nude mice and exposed to BSA, S1P (5 μM), or dhS1P (5 μM). Following 24-hour culture incubation, cells were labeled with specific antibodies and analyzed by multicolor flow cytometry (red: IMCs; blue: possible B-cells). (B) Splenic IMCs were isolated from MDA-MB-231 tumor-bearing athymic nude mice and cultured (5×10^4 cells/mL) in GEMM-supportive semi-solid media with BSA, S1P (5 μM), or dhS1P (5 μM). GEMM colonies (multipotent myeloid progenitor cells) were visualized and counted after 3 weeks of culture. ANOVA, *p<0.01 compared to no treatment or BSA-treatment, ***p<0.001 compared to S1P-treatment, n≧3. (C) Splenic hematopoietic progenitors (Lineage-Sca-1+CD117+) were isolated from MDA-MB-231 tumor-bearing athymic nude mice and exposed to BSA, S1P (5 μM), or dhS1P (5 μM). Following 24-hour culture incubation, cells were labeled with specific antibodies and analyzed by multicolor flow cytometry. […]
Isolated IMCs from the spleens of tumor-bearing athymic nude mice were cultured (5×10^4 cells/mL) in GEMM-supportive complete (mouse) methylcellulose media (R&D Systems, Minneapolis, Minn.), according to the manufacturer's instructions, with BSA, S1P (5 μM), or dhS1P (5 μM). GEMM colonies were visualized and counted after 3 weeks of culture.

[3] = system: murine Panc-02 pancreatic cancer cells; assay: Injection of BSA-conjugated sphingolipids into mice with subcutaneous Panc-02 tumors; assay type: in vivo; conditions: subcutaneous Panc-02 in C57BL/6J mice; injection every other day, 0.1 mL of 100 μM, BSA carrier
From the text: (A) Splenic IMCs (Gr-1+CD11b+, also defined as MDSC: myeloid-derived suppressor cells) were isolated from subcutaneous human MDA-MB-231 breast tumor-bearing athymic nude mice, treated with or without dhS1P (to induce the expansion of CD19+CD45R B220+ cells: B-cells), and adoptively transferred into subcutaneous human MDA-MB-231 breast tumor-bearing athymic nude mice before monitoring tumor growth. ANOVA, **p<0.05 compared to PBS control, n≧6. (B) Splenic IMCs were isolated from orthotopic human BxPC-3 pancreatic tumor-bearing athymic nude mice, treated with or without dhS1P, and adoptively transferred into orthotopic human BxPC-3 pancreatic tumor-bearing athymic nude mice before monitoring survival. Logrank test, *p<0.05, n=5. (C) Tumor growth following BSA (lipid carrier control), sphingosine-1-phosphate (S1P), or dhS1P injection every other day, was monitored in C57BL/6J mice engrafted with subcutaneous murine Panc-02 pancreatic cancer cells. ANOVA, **p<0.05 compared to BSA control, n≧6.
Orthotopic pancreatic cancer and subcutaneous breast cancer tumors were established in athymic nude, NOD.CB17-Prkdcscid/J, BALB/cJ, or C57BL/6J mice as previously described (8, 9), with minor modifications. All cell lines used in animal and cellular studies, prior to any modification, were originally obtained from the American Type Culture Collection (Manassas, Va.). For orthotopic BxPC-3-GFP human pancreatic cancer xenografts, 4-6 week old female athymic mice were fully anesthetized with a mixture of ketamine-HCl (129 mg/kg) and xylazine (4 mg/kg) injected intramuscularly. A small incision was made in the left flank, the peritoneum was dissected and the pancreas exposed. Using a 27-gauge needle, 2.5×10^6 cells, prepared in 0.1 mL of Hank's balanced salt solution, were injected into the pancreas. For experimental lung-metastatic osteosarcoma xenografts, 4-6 week old female athymic nude mice were tail vein-injected with 2.5×10^6 human SAOS-2-LM7 cells. […] Tumor size was measured by caliper measurement. […]

Structure (SMILES) | Tumor growth [1] | CFU-GEMM colony formation [2] | Tumor growth [3]
CC1(C)C(/C=C/C=C/C=C/C=C2\N(CCCCS(=O)(=O)O)c3ccc4ccccc4c3C2(C)C)=[N+](CCCCS(=O)(=O)[O-])c2ccc3ccccc3c21 [free ICG, indocyanine green] | not blocked |  | 
CCCCCCCCCCCCC/C=C/[C@@H](O)[C@@H](N)COP(=O)(O)O [S1P, sphingosine-1-phosphate, reference compound] |  | dramatically augmented | augmented tumor growth
